Measurements taken from US9441012B2, “Fluorinated epoxyketone-based compounds and uses thereof as proteasome inhibitors” (FLUORINOV PHARMA INC., priority 2012, dated 2016).

Experiments:
Test in all cases: NCI 60 human tumor cell line screen (SRB)
Format in all cases: cell-based
[1] = test system: SW-620; conditions: SW-620 (Colon Cancer); 48 h
How it was run: (§1)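 Cells plated 24 h before dosing, with time-zero plates TCA-fixed at drug addition; five concentrations (10-fold or ½-log dilutions) added and incubated 48 h at 37 °C, 5% CO2. Adherent cells fixed with 10% TCA, stained with 0.4% SRB, absorbance read at 515 nm; GI50, TGI and LC50 derived from percentage growth versus time zero and control.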

[2] = test system: HS 578T; conditions: HS 578T (Breast Cancer); 48 h
How it was run: as §1

[3] = test system: HL-60(TB); conditions: HL-60(TB) (Leukemia); 48 h
How it was run: as §1

[4] = test system: SNB-19; conditions: SNB-19 (CNS Cancer); 48 h
How it was run: as §1

[5] = test system: OVCAR-5; conditions: OVCAR-5 (Ovarian Cancer); 48 h
How it was run: as §1

[6] = test system: SK-OV-3; conditions: SK-OV-3 (Ovarian Cancer); 48 h
How it was run: as §1

[7] = test system: HCC-2998; conditions: HCC-2998 (Colon Cancer); 48 h
How it was run: as §1

[8] = test system: A498; conditions: A498 (Renal Cancer); 48 h
How it was run: as §1

[9] = test system: U251; conditions: U251 (CNS Cancer); 48 h
How it was run: as §1

[10] = test system: ACHN; conditions: ACHN (Renal Cancer); 48 h
How it was run: as §1

[11] = test system: 786-0; conditions: 786-0 (Renal Cancer); 48 h
How it was run: as §1

[12] = test system: NCI/ADR-RES; conditions: NCI/ADR-RES (Ovarian Cancer); 48 h
How it was run: as §1

## C[C@]1(C(=O)[C@H](Cc2ccccc2)NC(=O)[C@H](COC(F)F)NC(=O)[C@H](COC(F)F)NC(=O)CN2CCOCC2)CO1 [Example 26, (S)-N-{(S)-1-[(S)-1-Benzyl-2-((R)-2-methyl-oxiranyl)-2-oxo-ethylcarbamoyl]-2-difluoromethoxyethyl}-3-difluoromethoxy-2-(2-morpholin-4-yl-acetylamino)-propio-namide]
[1]
  Log10GI50: −7.41
  Log10LC50: >−4.00
  Log10TGI50: −5.93
[2]
  Log10GI50: −7.54
  Log10LC50: >−4.00
  Log10TGI50: −6.24
[3]
  Log10GI50: −7.45
  Log10LC50: >−4.00
  Log10TGI50: −6.35
[4]
  Log10GI50: −7.23
  Log10LC50: >−4.00
  Log10TGI50: >−4.00
[5]
  Log10GI50: −7.36
  Log10LC50: >−4.00
  Log10TGI50: −6.44
[6]
  Log10GI50: −7.30
  Log10TGI50: −6.60
[7]
  Log10GI50: −7.74
  Log10LC50: −7.20
  Log10TGI50: −7.47
[8]
  Log10GI50: −7.61
  Log10LC50: −6.34
  Log10TGI50: −7.03
[9]
  Log10GI50: −7.44
  Log10LC50: >−4.00
  Log10TGI50: −6.75
[10]
  Log10GI50: −7.01
  Log10LC50: >−4.00
  Log10TGI50: >−4.00
[11]
  Log10GI50: −7.20
  Log10LC50: −5.44
  Log10TGI50: −6.49
[12]
  Log10GI50: −5.82
  Log10LC50: >−4.00
  Log10TGI50: >−4.00
